Biological target: T1, Axl (Homo sapiens, UniProt P30530)
T1 construct: endogenous in cells; host or cells: HeLa cells
T1 sequence (P30530 26-894): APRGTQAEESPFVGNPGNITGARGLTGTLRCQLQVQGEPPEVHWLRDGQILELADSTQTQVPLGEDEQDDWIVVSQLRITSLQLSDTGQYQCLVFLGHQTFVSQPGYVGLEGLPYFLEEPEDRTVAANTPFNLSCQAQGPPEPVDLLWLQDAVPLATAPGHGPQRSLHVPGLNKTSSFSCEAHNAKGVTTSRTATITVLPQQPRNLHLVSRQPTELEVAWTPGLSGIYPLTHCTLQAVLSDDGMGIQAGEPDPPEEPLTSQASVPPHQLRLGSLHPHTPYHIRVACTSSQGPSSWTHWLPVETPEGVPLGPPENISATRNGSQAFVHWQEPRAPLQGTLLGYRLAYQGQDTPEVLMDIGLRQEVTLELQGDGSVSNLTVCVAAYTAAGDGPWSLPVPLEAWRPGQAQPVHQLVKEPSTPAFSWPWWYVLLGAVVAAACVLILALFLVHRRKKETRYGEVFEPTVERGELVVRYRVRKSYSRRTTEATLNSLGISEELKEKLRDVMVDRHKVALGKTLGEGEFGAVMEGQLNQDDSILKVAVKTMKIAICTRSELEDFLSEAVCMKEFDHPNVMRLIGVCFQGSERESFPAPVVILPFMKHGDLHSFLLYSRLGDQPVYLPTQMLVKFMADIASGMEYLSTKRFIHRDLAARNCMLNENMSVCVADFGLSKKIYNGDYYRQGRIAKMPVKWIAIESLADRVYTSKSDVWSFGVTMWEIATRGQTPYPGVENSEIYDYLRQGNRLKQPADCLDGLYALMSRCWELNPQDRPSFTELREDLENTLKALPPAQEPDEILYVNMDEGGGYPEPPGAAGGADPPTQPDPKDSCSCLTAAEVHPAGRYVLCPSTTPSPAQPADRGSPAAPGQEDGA
Assay: Phospho-Akt in-cell Western assay (inhibition of Axl activity)
Format: cell-based
Procedure: The compounds of the invention were tested in the following assay for their ability to inhibit Axl activity.
Phospho-Akt in-Cell Western Assay
• Cell culture plate: 96 well assay plate (Corning 3610), white, clear bottom, tissue-culture treated. • Cells: Hela cells. • Starvation medium: For Axl stimulation: 0.5% FCS (fetal calf serum) in DMEM, plus Axl/Fc (extracellular domain of AXL fused to immunoglobulin Fc region) (R&D, 154-AL) 500 ng/mL. • For EGF (epidermal growth factor) stimulation: 0.5% FCS in DMEM (Dulbecco's modified Eagles medium). • Poly-L-Lysine 0.01% solution (the working solution): 10 μg/ml, dilute In PBS (phosphate buffered saline). • Axl antibody cross-linking: • 1st: Mouse anti-Axl (R&D, MAB154). • 2nd: Biotin-SP-conjugated AffiniPure goat anti-mouse IgG (H+L) (Jackson ImmunoResearch #115-065-003). • Fixing buffer: 4% formaldehyde in PBS. • Wash buffer: 0.1% TritonX-100 in PBS. • Quenching buffer: 3% H2O2, 0.1% Azide in wash buffer, Azide and hydrogen peroxide (H2O2) are added fresh. • Blocking buffer: 5% BSA in TBST (tris buffered saline plus 0.1% Tween 20). • Primary antibody: Rabbit anti-human Phospho-Akt antibody (Cell Signaling 9271): 1×250 diluted in blocking buffer. • Secondary antibody: HRP (horse radish peroxidase)-conjugated Goat anti-Rabbit secondary, stock solution: Jackson ImmunoResearch (Goat anti-Rabbit HRP, #111-035-144) 1:1 diluted in glycerol, store at −20° C. The working solution: 1×2000 dilution of stock in blocking buffer. • Chemiluminescent working solution (Pierce, 37030): SuperSignal ELISA (enzyme linked immunosorbant assay) Pico Chemiluminescent substrate. • Crystal Violet solution: Stock: 2.5% Crystal violet in methanol, filtered and kept at ambient temperature. The working solution: dilute the stock 1:20 with PBS immediately before use. • 10% SDS: working solution: 5% SDS (sodium dodecylsulfate), diluted in PBS Methods: Day 1:
A 96 well TC (tissue culture treated) plate was coated with 10 μg/mL poly-L-Lysine at 37° C. for 30 min, washed twice with PBS, and air-dried for 5 minutes before cells were added. Hela cells were seeded at 10,000 cells/well and the cells were starved in 100 μL starvation medium containing Axl/Fc for 24 hrs.
The cells were pre-treated with test compounds by adding 100 μL of 2× test compound to the starvation medium on the cells. The cells were incubated at 37° C. for 1 hr before stimulation.
The cells were stimulated by Axl-antibody cross-linking as follows: A 5×1st/2nd Axl antibody mixture was made (37.5 μg/mL 1st/100 μg/mL 2nd) in starvation medium and nutated at 4° C. with thorough mixing for 1-2 hours for clustering. The resulting mix was warmed to 37° C. 50 μL of 5× Axl 1st/2nd of antibody cluster was added to the cells and the cells were incubated at 37° C. for 5 min.
After 5 minutes stimulation, the plate was flicked to remove medium and the plate was tapped onto paper towels. Formaldehyde (4.0% in PBS, 100 μL) was added to fix the cells and the cells were incubated at ambient temperature for 20 min without shaking.
The cells were washed with a plate washer buffer to remove the formaldehyde solution. The plate was flicked to removed excess wash buffer and tapped onto paper towels. Quenching buffer (100 μL) was added to each well and the cells were incubated at ambient temperature for 20 minutes without shaking.
The cells were washed with a plate washer buffer to remove the quenching buffer. Blocking buffer (100 μL) was added and the cells were incubated at ambient temperature for at least an hour with gentle shaking.
The cells were washed with a plate washer buffer and diluted primary antibody (50 μL) was added to each well (blocking buffer was added to the negative control wells instead). The plates were incubated overnight at 4° C. with gentle shaking.
The wash buffer was removed, diluted secondary antibody (100 μL) was added, and the cells were incubated at ambient temperature for 1 hour with gentle shaking. […]

[1] = Table 7, Hela cells, Axl antibody cross-linking stimulation, phospho-Akt chemiluminescence
[2] = Table 2, Hela cells, Axl antibody cross-linking stimulation, phospho-Akt chemiluminescence
[3] = inhibition of Axl activity, Table 1
[4] = Table 5, Hela cells, Axl antibody cross-linking stimulation, phospho-Akt chemiluminescence

| SMILES | IC50 [3] | also measured |
| --- | --- | --- |
| CN(C)c1ccc(NC(=O)n2nc(Nc3ccc(OCCN4CCCCC4)cc3)nc2N)cc1 [compound 44, 5-amino-N-(4-(dimethylamino)phenyl)-3-[4-[2-(piperidin-1-yl)ethoxy]phenylamino]-1H-1,2,4-triazole-1-carboxamide] | – | IC50 [1]: 1000 to 10000 nM |
| Nc1nc(Nc2ccc(OCCN3CCCCC3)cc2)nn1C(=O)NC1CCCC1 [compound 45, 5-amino-N-cyclopentyl-3-[4-[2-(piperidin-1-yl)ethoxy]phenylamino]-1H-1,2,4-triazole-1-carboxamide] | – | IC50 [1]: 1000 to 10000 nM |
| CCCCOc1ccc(NC(=O)n2nc(Nc3ccc(OCCN4CCCCC4)cc3)nc2N)cc1 [compound 46, 5-amino-N-(4-butoxyphenyl)-3-[4-[2-(piperidin-1-yl)ethoxy]phenylamino]-1H-1,2,4-triazole-1-carboxamide] | – | IC50 [1]: 1000 to 10000 nM |
| CC(C)Oc1ccc(C(=O)n2nc(N)nc2Nc2ccc(OCCN3CCCCC3)cc2)cc1 [compound 47, 3-amino-1-(4-(iso-propoxy)phenyl)carbonyl-5-[4-[2-(piperidin-1-yl)ethoxy]phenylamino]-1H-1,2,4-triazole] | – | IC50 [2]: > 20000 nM |
| CC(C)Oc1ccc(C(=O)n2nc(Nc3ccc(N4CCOCC4)cc3)nc2N)cc1 [compound 48, 5-amino-1-(4-(iso-propoxy)phenyl)carbonyl-3-(4-(morpholin-4-yl)phenylamino]-1H-1,2,4-triazole] | < 1000 nM | – |
| CC(C)Oc1ccc(C(=O)n2nc(N)nc2Nc2ccc(N3CCOCC3)cc2)cc1 [compound 49, 3-amino-1-(4-(iso-propoxy)phenyl)carbonyl-5-(4-(morpholin-4-yl)phenylamino]-1H-1,2,4-triazole] | – | IC50 [2]: > 20000 nM |
| CC(C)(C)Oc1ccc(C(=O)n2nc(Nc3ccc(OCCN4CCCCC4)cc3)nc2N)cc1 [compound 50, 5-amino-3-[4-[2-(piperidin-1-yl)ethoxy]phenylamino]-1-(4-(tert-butoxy)phenyl)carbonyl-1H-1,2,4-triazole] | < 1000 nM | – |
| CC(C)c1ccc(C(=O)n2nc(Nc3ccc(OCCN4CCCCC4)cc3)nc2N)cc1 [compound 51, 5-amino-1-(4-(iso-propyl)phenyl)carbonyl-3-[4-[2-(piperidin-1-yl)ethoxy]phenylamino]-1H-1,2,4-triazole] | < 1000 nM | – |
| CC(C)c1ccc(C(=O)n2nc(Nc3ccc(N4CCOCC4)cc3)nc2N)cc1 [compound 52, 5-amino-1-(4-(iso-propyl)phenyl)carbonyl-3-(4-(morpholin-4-yl)phenylamino]-1H-1,2,4-triazole] | < 1000 nM | – |
| Cc1ccc(C(=O)n2nc(Nc3ccc(OCCN4CCCCC4)cc3)nc2N)cc1 [compound 53, 5-amino-1-(4-(methyl)phenyl)carbonyl-3-[4-[2-(piperidin-1-yl)ethoxy]phenylamino]-1H-1,2,4-triazole] | < 1000 nM | – |
| Cc1ccc(C(=O)n2nc(Nc3ccc(N4CCOCC4)cc3)nc2N)cc1 [compound 54, 5-amino-1-(4-(methyl)phenyl)carbonyl-3-(4-(morpholin-4-yl)phenylamino)-1H-1,2,4-triazole] | < 1000 nM | – |
| Cc1ccc(C(=O)n2nc(Nc3ccc(OC(C)C)cc3)nc2N)cc1 [compound 55, 5-amino-3-[4-(iso-propoxy)phenylamino]-1-(4-(methyl)phenyl)carbonyl-1H-1,2,4-triazole] | < 1000 nM | – |
| Cc1ccc(C(=O)n2nc(N)nc2Nc2ccc(OC(C)C)cc2)cc1 [compound 56, 3-amino-5-[4-(iso-propoxy)phenylamino]-1-(4-(methyl)phenyl)carbonyl-1H-1,2,4-triazole] | – | IC50 [2]: > 20000 nM |
| CC(C)(C)Oc1ccc(C(=O)n2nc(Nc3ccc(N4CCOCC4)cc3)nc2N)cc1 [compound 57, 5-amino-3-(4-(morpholin-4-yl)phenylamino)-1-(4-(tert-butoxy)phenyl)carbonyl-1H-1,2,4-triazole] | < 1000 nM | – |
| CC(C)(C)Oc1ccc(C(=O)n2nc(N)nc2Nc2ccc(N3CCOCC3)cc2)cc1 [compound 58, 3-amino-5-(4-(morpholin-4-yl)phenylamino)-1-(4-(tert-butoxy)phenyl)carbonyl-1H-1,2,4-triazole] | – | IC50 [2]: > 20000 nM |
| Cc1cccc(C(=O)n2nc(Nc3ccc(OCCN4CCCCC4)cc3)nc2N)c1 [compound 59, 5-amino-1-(3-(methyl)phenyl)carbonyl-3-[4-[2-(piperidin-1-yl)ethoxy]phenylamino]-1H-1,2,4-triazole] | < 1000 nM | – |
| CC(C)Oc1ccc(C(=O)n2nc(Nc3ccc(OCCN4CCSCC4)cc3)nc2N)cc1 [compound 60] | < 1000 nM | – |
| Cc1cccc(C(=O)n2nc(Nc3ccc(OCCN4CCSCC4)cc3)nc2N)c1 [compound 61] | 1000 to 10000 nM | – |
| Nc1nc(Nc2ccc(OCCN3CCCCC3)cc2)nn1C(=O)c1ccc(C2CCCCC2)cc1 [compound 62, 5-amino-1-(4-(cyclohexyl)phenyl)carbonyl-3-[4-[2-(piperidin-1-yl)ethoxy]phenylamino]-1H-1,2,4-triazole] | 1000 to 10000 nM | – |
| CC(C)Oc1ccc(C(=O)n2nc(Nc3ccc4c(c3)NC(=O)C(F)(F)O4)nc2N)cc1 [compound 63, 5-amino-3-(2,2-difluoro-2H-benzo[b][1,4]oxazin-3(4H)-on-6-yl)amino-1-(4-(iso-propoxy)phenyl)carbonyl-1H-1,2,4-triazole] | – | IC50 [4]: > 20000 nM |
| Cc1cccc(C(=O)n2nc(Nc3ccc4c(c3)NC(=O)C(F)(F)O4)nc2N)c1 [compound 64, 5-amino-3-(2,2-difluoro-2H-benzo[b][1,4]oxazin-3(4H)-on-6-yl)amino-1-(3-(methyl)phenyl)carbonyl-1H-1,2,4-triazole] | – | IC50 [4]: > 20000 nM |
| CC(C)Oc1ccc(Nc2nc(N)n(C(=O)c3ccc4c(c3)NC(=O)C(C)(C)O4)n2)cc1 [compound 65, 5-amino-1-(2,2-dimethyl-2H-benzo[b][1,4]oxazin-3(4H)-on-6-yl)carbonyl-3-(4-(iso-propoxy)phenyl)amino-1H-1,2,4-triazole] | – | IC50 (Table 3, Hela cells, Axl antibody cross-linking stimulation, phospho-Akt chemiluminescence): 1000 to 10000 nM |

— patent US8389557B2, “Triazole derivatives useful as Axl inhibitors” (Rigel Pharmaceuticals, Inc., priority 2005, dated 2013)
